Measured values as given in patent publication US6737383B1, “Herbicidal oxadiazolidines” (priority 1999, dated 2004).

Key:
[1] = tested on: corn; assay: Test B pre/postemergence corn; format: in vivo, Zea mays
Outline: (§1)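 Response is a visual 0-to-10 score relative to untreated plants, where 0 means no effect and 10 means complete control, taken twelve to sixteen days after application. Treatments went onto soil at planting and onto foliage of 1- to 4-leaf plants, using a surfactant-containing non-phytotoxic solvent.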

[2] = tested on: soybean; assay: Test B pre/postemergence soybean; format: in vivo, Glycine max
Outline: as §1

[3] = tested on: crabgrass; assay: Test B pre/postemergence crabgrass; format: in vivo, Digitaria sanguinalis
Outline: as §1

[4] = tested on: rice; assay: Test B flood test rice; format: in vivo, Oryza sativa
Outline: (§2)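 Read-out is a visual response score from 0 (no effect) to 10 (complete control), assigned by comparison with untreated controls. Treatment was applied at the 2-leaf stage, and plants stayed in the greenhouse for twelve to sixteen days before scoring.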

[5] = tested on: purple nutsedge; assay: Test B pre/postemergence purple nutsedge; format: in vivo, Cyperus rotundus
Outline: as §1

[6] = tested on: surinam grass; assay: Test B pre/postemergence surinam grass; format: in vivo, Brachiaria decumbens
Outline: as §1

[7] = tested on: wheat; assay: Test B pre/postemergence wheat; format: in vivo, Triticum aestivum
Outline: as §1

[8] = tested on: blackgrass; assay: Test B pre/postemergence blackgrass; format: in vivo, Alopecurus myosuroides
Outline: as §1

[9] = tested on: pigweed; assay: Test B pre/postemergence pigweed; format: in vivo, Amaranthus retroflexus
Outline: as §1

[10] = tested on: giant foxtail; assay: Test B pre/postemergence giant foxtail; format: in vivo, Setaria faberii
Outline: as §1

[11] = tested on: wild oat; assay: Test B pre/postemergence wild oat; format: in vivo, Avena fatua
Outline: as §1

[12] = tested on: bedstraw; assay: Test B pre/postemergence bedstraw; format: in vivo, Galium aparine
Outline: as §1

[13] = tested on: smallflower flatsedge; assay: Test B flood test smallflower flatsedge; format: in vivo, Cyperus difformis
Outline: as §2

[14] = tested on: velvetleaf; assay: Test B pre/postemergence velvetleaf; format: in vivo, Abutilon theophrasti
Outline: as §1

[15] = tested on: morningglory; assay: Test B pre/postemergence morningglory; format: in vivo, Ipomoea hederacea
Outline: as §1

[16] = tested on: duck salad; assay: Test B flood test duck salad; format: in vivo, Heteranthera limosa
Outline: as §2

[17] = Postemergence, Rate 125 g/ha, scale of 0 to 10 where 0 is no effect and 10 is complete control
[18] = Preemergence, Rate 62 g/ha, scale 0 to 10 (0 no effect, 10 complete control)
[19] = Preemergence, Rate 125 g/ha, 0 is no effect, 10 is complete control
[20] = Preemergence, Rate 250 g/ha, scale 0 to 10, 0 is no effect, 10 is complete control
[21] = Preemergence, Rate 500 g/ha, scale 0 to 10 (0 no effect, 10 complete control)
[22] = Rate 62 g/ha, Postemergence, scale of 0 to 10 where 0 is no effect and 10 is complete control
[23] = Rate 250 g/ha, Postemergence, scale 0 to 10, 0 is no effect, 10 is complete control
[24] = Rate 500 g/ha, Postemergence, scale 0 to 10
[25] = Postemergence (flood test species), Rate 125 g/ha, scale of 0 to 10 where 0 is no effect and 10 is complete control
[26] = Rate 62 g/ha, Postemergence section, flood test species, scale of 0 to 10 where 0 is no effect and 10 is complete control
[27] = Rate 250 g/ha, Postemergence (flood test), scale 0 to 10, 0 is no effect, 10 is complete control
[28] = Rate 500 g/ha, listed under Postemergence (flood test species), scale 0 to 10

CC(C)N(C(=O)n1oc(=O)n(Cc2ccccc2Cl)c1=O)c1ccc(F)cc1 [Compound 140]
4: Crabgrass plant response rating [3, 18] | Rice plant response rating [4, 28] | Blackgrass plant response rating [8, 20] | Blackgrass plant response rating [8, 21] | Plant response rating, Blackgrass [8, 23] | Plant response rating, Giant foxtail [10, 23] | Bedstraw plant response rating [12, 22] | Morningglory plant response rating [15, 22]
5: Soybean plant response rating [2, 24] | Crabgrass plant response rating [3, 20] | Bedstraw plant response rating [12, 17] | Plant response rating, Bedstraw [12, 23]
0: Corn plant response rating [1, 17] | Corn plant response rating [1, 18] | Corn plant response rating (0 to 10 scale) [1, 19] | Corn plant response rating [1, 20] | Corn plant response rating [1, 21] | Corn plant response rating [1, 22] | Plant response rating, Corn [1, 23] | Corn plant response rating [1, 24] | Soybean plant response rating [2, 18] | Soybean plant response rating (0 to 10 scale) [2, 19] | Soybean plant response rating [2, 20] | Crabgrass plant response rating [3, 22] | Rice plant response rating [4, 25] | Rice plant response rating [4, 26] | Nutsedge plant response rating [5, 17] | Nutsedge plant response rating [5, 18] | Nutsedge plant response rating (0 to 10 scale) [5, 19] | Nutsedge plant response rating [5, 20] | Nutsedge plant response rating [5, 21] | Nutsedge plant response rating [5, 22] | Plant response rating, Nutsedge [5, 23] | Nutsedge plant response rating [5, 24] | B. signalgrass plant response rating [6, 17] | B. signalgrass plant response rating [6, 18] | B. signalgrass plant response rating (0 to 10 scale) [6, 19] | B. signalgrass plant response rating [6, 20] | B. signalgrass plant response rating [6, 22] | Plant response rating, B. signalgrass [6, 23] | Wheat plant response rating [7, 17] | Wheat plant response rating [7, 18] | Wheat plant response rating (0 to 10 scale) [7, 19] | Wheat plant response rating [7, 20] | Wheat plant response rating [7, 21] | Wheat plant response rating [7, 22] | Plant response rating, Wheat [7, 23] | Wheat plant response rating [7, 24] | Blackgrass plant response rating [8, 18] | Blackgrass plant response rating (0 to 10 scale) [8, 19] | Redroot pigweed plant response rating [9, 18] | Redroot pigweed plant response rating (0 to 10 scale) [9, 19] | Redroot pigweed plant response rating [9, 20] | Redroot pigweed plant response rating [9, 21] | Redroot pigweed plant response rating [9, 22] | Giant foxtail plant response rating [10, 22] | Wild oats plant response rating [11, 17] | Wild oats plant response rating [11, 18] | Wild oats plant response rating (0 to 10 scale) [11, 19] | Wild oats plant response rating [11, 22] | Plant response rating, Wild oats [11, 23] | Bedstraw plant response rating [12, 18] | Bedstraw plant response rating (0 to 10 scale) [12, 19] | Bedstraw plant response rating [12, 20] | Bedstraw plant response rating [12, 21] | S. Flatsedge plant response rating [13, 25] | S. Flatsedge plant response rating [13, 26] | Plant response rating, S. Flatsedge [13, 27] | S. Flatsedge plant response rating [13, 28] | Velvetleaf plant response rating [14, 17] | Velvetleaf plant response rating [14, 18] | Velvetleaf plant response rating (0 to 10 scale) [14, 19] | Velvetleaf plant response rating [14, 20] | Velvetleaf plant response rating [14, 21] | Velvetleaf plant response rating [14, 22] | Plant response rating, Velvetleaf [14, 23] | Morningglory plant response rating [15, 18] | Morningglory plant response rating (0 to 10 scale) [15, 19] | Morningglory plant response rating [15, 20] | Morningglory plant response rating [15, 21] | Ducksalad plant response rating [16, 25] | Ducksalad plant response rating [16, 26] | Plant response rating, Ducksalad [16, 27] | Ducksalad plant response rating [16, 28]
8: Giant foxtail plant response rating (0 to 10 scale) [10, 19] | Morningglory plant response rating [15, 17] | Plant response rating, Morningglory [15, 23] | Morningglory plant response rating [15, 24]
6: Crabgrass plant response rating (0 to 10 scale) [3, 19] | Blackgrass plant response rating [8, 24] | Giant foxtail plant response rating [10, 24] | Bedstraw plant response rating ([12]; Rate 500 g/ha, Postemergence, scale 0 to 10, 0 no effect, 10 complete control)
2: Plant response rating, Rice [4, 27] | B. signalgrass plant response rating [6, 21] | Plant response rating, Redroot pigweed [9, 23] | Velvetleaf plant response rating [14, 24]
9: Plant response rating, Crabgrass [3, 23] | Crabgrass plant response rating [3, 24]
10: Crabgrass plant response rating [3, 21] | Giant foxtail plant response rating [10, 21]
1: Soybean plant response rating [2, 21] | Crabgrass plant response rating [3, 17] | B. signalgrass plant response rating ([6]; Rate 500 g/ha, Postemergence, scale of 0 to 10 where 0 is no effect and 10 is complete control) | Redroot pigweed plant response rating [9, 17] | Giant foxtail plant response rating [10, 17] | Giant foxtail plant response rating [10, 18] | Wild oats plant response rating [11, 20] | Wild oats plant response rating [11, 21] | Wild oats plant response rating [11, 24]
3: Soybean plant response rating [2, 17] | Soybean plant response rating [2, 22] | Plant response rating, Soybean [2, 23] | Blackgrass plant response rating [8, 17] | Blackgrass plant response rating [8, 22] | Redroot pigweed plant response rating [9, 24]
